Measurements from patent US20260183320A1, “METHOD FOR TREATING CANCER BY COMBINING ALKYLATING AGENT PRODRUG AND CELL CYCLE INHIBITOR” (ASCENTAWITS PHARMACEUTICALS, LTD., priority 2022, published 2026).
pIC50: −log10 of the molar value.

How the values were obtained:
[1] = tested on: p53-deficient (HT29) cell line; experiment: CTG cell proliferation assay, HT29 cell line; format: cell-based; settings: for pIC50: Homo sapiens, 72 h
Method: (§1) Each CTG cell proliferation assay included the steps as follows: • 1) An H460 or HT29 cell suspension was added to a 96-well plate at 100 μL per well so that each well contained 2000 or 10000 cells. • 2) The cells were incubated overnight at 37° C. in an incubator with 5% CO2. • 3) Treatment with Compounds
(§2) Combination therapy: 1 μL of adavosertib (at four concentrations), AZD7762 (at four concentrations), palbociclib (at four concentrations) or ceralasertib (at three concentrations) was added to each well and shaken gently until homogeneous mixing.
(§3) 7) Chemiluminescence was read for 1000 ms on a multimode microplate reader. • 8) IC50 (half-maximal inhibitory concentration) values of the compounds were calculated using the GraphPad Prism 5 software. 1.

[2] = tested on: wild-type p53-expressing (H460) cell line; experiment: CTG cell proliferation assay, H460 cell line; format: cell-based; settings: for pIC50: Homo sapiens, 72 h
Method: as §1, §2, §3

[3] = HT29 (p53-deficient), various concentrations, also low
[4] = H460 (wild-type p53), all concentrations
[5] = H460 (wild-type p53), both drugs at low concentrations

## O=[N+]([O-])c1ccc(C(OP(=O)(N2CC2)N2CC2)C(F)(F)F)cc1Oc1ccc(-c2ccc(F)cc2)c(F)c1 (stereo not shown) [AST]
[1]; HT29 (p53-deficient), drugs at low concentrations
  additive cytotoxic effect in combination therapy with palbociclib: certain additive cytotoxic effects
[1]; HT29 (p53-deficient), various concentrations
  additive cytotoxic effect in combination therapy with ceralasertib: significant additive cytotoxic effects
[1]; [3]
  additive cytotoxic effect in combination therapy with AZD7762: significant additive cytotoxic effects
  additive cytotoxic effect in combination therapy with adavosertib: significant additive cytotoxic effects
  additive cytotoxic effect in combination therapy with palbociclib: significant additive cytotoxic effects
[1]; HT29, IC50 monotherapy / IC50 with 100 nM AZD7762
  Ratio single/combo: 95.61
[1]; HT29, IC50 monotherapy / IC50 with 100 nM adavosertib
  Ratio single/combo: 44.97
[1]; HT29, IC50 monotherapy / IC50 with 130 nM AZD7762
  Ratio single/combo: 105.70
[1]; HT29, IC50 monotherapy / IC50 with 130 nM adavosertib
  Ratio single/combo: 95.54
[1]; HT29, IC50 monotherapy / IC50 with 160 nM AZD7762
  Ratio single/combo: 107.78
[1]; HT29, IC50 monotherapy / IC50 with 160 nM adavosertib
  Ratio single/combo: 114.24
[1]; HT-29, 72 h, HT29, monotherapy
  pIC50: 5.86
[1]; HT-29, HT29, with 50 nM palbociclib (2 h pretreatment)
  pIC50: 5.98
[1]; HT-29, HT29, with 100 nM AZD7762 (2 h pretreatment)
  pIC50: 7.84
[1]; HT-29, HT29, with 100 nM adavosertib (2 h pretreatment)
  pIC50: 7.52
[1]; HT-29, HT29, with 130 nM AZD7762 (2 h pretreatment)
  pIC50: 7.89
[1]; HT-29, HT29, with 130 nM adavosertib (2 h pretreatment)
  pIC50: 7.84
[1]; HT-29, HT29, with 160 nM AZD7762 (2 h pretreatment)
  pIC50: 7.90
[1]; HT-29, HT29, with 160 nM adavosertib (2 h pretreatment)
  pIC50: 7.92
[1]; HT-29, HT29, with 1000 nM palbociclib (2 h pretreatment)
  pIC50: 5.76
[1]; HT-29, HT29, with 5000 nM palbociclib (2 h pretreatment)
  pIC50: 5.80
[2]; H460 (wild-type p53), AZD7762 160 nM
  additive cytotoxic effect in combination therapy with AZD7762: certain additive cytotoxic effects
[2]; [4]
  additive cytotoxic effect in combination therapy with adavosertib: did not exhibit any additive toxic effects
  additive cytotoxic effect in combination therapy with palbociclib: did not exhibit any significant additive cytotoxic effects
[2]; [5]
  additive cytotoxic effect in combination therapy with AZD7762: not significant
  additive cytotoxic effect in combination therapy with adavosertib: not significant
  additive cytotoxic effect in combination therapy with ceralasertib: not significant
[2]; H460 (wild-type p53), medium and high concentrations
  additive cytotoxic effect in combination therapy with AZD7762: certain additive cytotoxic effects
[2]; H460 (wild-type p53), medium or high concentration
  additive cytotoxic effect in combination therapy with ceralasertib: certain additive cytotoxic effects
[2]; H460 (wild-type p53), medium or high concentrations
  additive cytotoxic effect in combination therapy with adavosertib: certain additive cytotoxic effects
[2]; H460 (wild-type p53), other concentrations than 160 nM AZD7762
  additive cytotoxic effect in combination therapy with AZD7762: did not exhibit any additive cytotoxic effects
[2]; H460, IC50 monotherapy / IC50 with 0.5 nM AZD7762
  Ratio single/combo: 1.20
[2]; H460, IC50 monotherapy / IC50 with 0.5 nM adavosertib
  Ratio single/combo: 1.24
[2]; H460, IC50 monotherapy / IC50 with 6.4 nM AZD7762
  Ratio single/combo: 1.00
[2]; H460, IC50 monotherapy / IC50 with 6.4 nM adavosertib
  Ratio single/combo: 0.90
[2]; H460, IC50 monotherapy / IC50 with 160 nM AZD7762
  Ratio single/combo: 3.81
[2]; H460, IC50 monotherapy / IC50 with 160 nM adavosertib
  Ratio single/combo: 1.19
[2]; H460, IC50 monotherapy / IC50 with 800 nM adavosertib
  Ratio single/combo: 1.41
[2]; H460, IC50 with 0.05 nM palbociclib / IC50 monotherapy
  Ratio combo/single: 1.08
[2]; H460, IC50 with 0.64 nM palbociclib / IC50 monotherapy
  Ratio combo/single: 1.35
[2]; H460, IC50 with 400 nM palbociclib / IC50 monotherapy
  Ratio combo/single: 2.55
[2]; NCI-H460, 72 h, H460, monotherapy
  pIC50: 8.39
[2]; NCI-H460, H460, with 0.05 nM palbociclib (2 h pretreatment)
  pIC50: 8.36
[2]; NCI-H460, H460, with 0.5 nM AZD7762 (2 h pretreatment)
  pIC50: 8.47
[2]; NCI-H460, H460, with 0.5 nM adavosertib (2 h pretreatment)
  pIC50: 8.48
[2]; NCI-H460, H460, with 0.64 nM palbociclib (2 h pretreatment)
  pIC50: 8.26
[2]; NCI-H460, H460, with 6.4 nM AZD7762 (2 h pretreatment)
  pIC50: 8.39
[2]; NCI-H460, H460, with 6.4 nM adavosertib (2 h pretreatment)
  pIC50: 8.34
[2]; NCI-H460, H460, with 160 nM AZD7762 (2 h pretreatment)
  pIC50: 8.97
[2]; NCI-H460, H460, with 160 nM adavosertib (2 h pretreatment)
  pIC50: 8.46
[2]; NCI-H460, H460, with 400 nM palbociclib (2 h pretreatment)
  pIC50: 7.98
[2]; NCI-H460, H460, with 800 nM adavosertib (2 h pretreatment)
  pIC50: 8.54
